# Results published in patent US12083202B2, “Lipophilic cosmetic compositions containing pelargonic acid esters” (Novamont S.p.A., priority 2015, dated 2024).
# Assay: UV filters dispersion: dispersibility of a solid UV filter in ester oils
# Assay type: physicochemical
# Design: key to Filters dispersion t0 1% / Filters dispersion t0 10% / Filters dispersion t24 1% / Filters dispersion t24 10%: D=homogeneous dispersion; S=sediment deposit
# Conditions: 1% TiO2, storage 0 hours at 25° C.
# Procedure: The dispersibility of a solid UV filter in different ester oils was tested using Titania (TiO2, commercially available as Titanio Biossido Anatasio from A.C.E.F.). Various ratios of filter/ester (1% and 10% TiO2) were prepared under stirring at 70° C. for 30 minutes. The dispersions were then observed after a storage period of 0 hours (t0) and 24 hours (t24) at ambient temperature (25° C.) to check for the formation of any sediment deposit. Results for each ester are shown in the table below (D=homogeneous dispersion; S=sediment deposit).
row,Filters dispersion t0 1%,SMILES
1,D,CCCCCCCCC(=O)OCC(COC(=O)CCCCCCCC)OC(=O)CCCCCCCC [Glycerol tripelargonate]
2,D,"CC(C)CCCCCCOC(=O)CCCCCC(C)C [Isononyl Isononanoate, reference compound]"
3,D,CCCCCCCCC(=O)OCC(C)(C)COC(=O)CCCCCCCC [Neopentyl glycol dipelargonate]
4,D,CCCCCCCCC(=O)OCC(COC(=O)CCCCCCCC)(COC(=O)CCCCCCCC)COC(=O)CCCCCCCC [Pentaerythritol tetrapelargonate]

# Same assay, conditions: 1% TiO2, storage 24 hours at 25° C.
row,Filters dispersion t24 1%,SMILES
1,D,CCCCCCCCC(=O)OCC(COC(=O)CCCCCCCC)OC(=O)CCCCCCCC [Glycerol tripelargonate]
2,S,"CC(C)CCCCCCOC(=O)CCCCCC(C)C [Isononyl Isononanoate, reference compound]"
3,S/D,CCCCCCCCC(=O)OCC(C)(C)COC(=O)CCCCCCCC [Neopentyl glycol dipelargonate]
4,D,CCCCCCCCC(=O)OCC(COC(=O)CCCCCCCC)(COC(=O)CCCCCCCC)COC(=O)CCCCCCCC [Pentaerythritol tetrapelargonate]

# Same assay, conditions: 10% TiO2, storage 0 hours at 25° C.
row,Filters dispersion t0 10%,SMILES
1,D,CCCCCCCCC(=O)OCC(COC(=O)CCCCCCCC)OC(=O)CCCCCCCC [Glycerol tripelargonate]
2,D,"CC(C)CCCCCCOC(=O)CCCCCC(C)C [Isononyl Isononanoate, reference compound]"
3,D,CCCCCCCCC(=O)OCC(C)(C)COC(=O)CCCCCCCC [Neopentyl glycol dipelargonate]
4,D,CCCCCCCCC(=O)OCC(COC(=O)CCCCCCCC)(COC(=O)CCCCCCCC)COC(=O)CCCCCCCC [Pentaerythritol tetrapelargonate]

# Same assay, conditions: 10% TiO2, storage 24 hours at 25° C.
row,Filters dispersion t24 10%,SMILES
1,S/D,CCCCCCCCC(=O)OCC(COC(=O)CCCCCCCC)OC(=O)CCCCCCCC [Glycerol tripelargonate]
2,S,"CC(C)CCCCCCOC(=O)CCCCCC(C)C [Isononyl Isononanoate, reference compound]"
3,S/D,CCCCCCCCC(=O)OCC(C)(C)COC(=O)CCCCCCCC [Neopentyl glycol dipelargonate]
4,D,CCCCCCCCC(=O)OCC(COC(=O)CCCCCCCC)(COC(=O)CCCCCCCC)COC(=O)CCCCCCCC [Pentaerythritol tetrapelargonate]

# Same assay, conditions: in words, compared with reference solvents
row,dispersion of Titania,SMILES
1,even better,CCCCCCCCC(=O)OCC(COC(=O)CCCCCCCC)OC(=O)CCCCCCCC [Glycerol tripelargonate]
2,even better,CCCCCCCCC(=O)OCC(COC(=O)CCCCCCCC)(COC(=O)CCCCCCCC)COC(=O)CCCCCCCC [Pentaerythritol tetrapelargonate]

# Assay: Pigment dispersion: wet point and flow point
# Assay type: physicochemical
# Conditions: from the minimum difference between Fp and Wp
# From the text: Black Iron Oxide particles (CI77499, commercially available as YPC335200 from Yipin) were dispersed in each of the ester oils of the present invention and in ester oil commonly used as cosmetic ingredients. Each sample of powder particles was wetted by the dropwise addition of one ester oil and then vigorously blended using a spatula until the wet point and the flow point were reached.
# The wet point is defined as the minimum volume of dispersant solution to produce a soft coherent mass; the further minimum addition of dispersant solution to produce flow or falling off of the homogeneous mass from the vertical blade of a horizontally held spatula determines the flow point.
# The amounts of dispersant solution (i.e. ester oil) needed to reach the wet point (Wp) and the flow point (Fp) were recorded and reported in the table below, expressed in grams per 100 g of pigment.
row,less solvent required in the final composition,SMILES
1,about 30%,CCCCCCCCC(=O)OCC(COC(=O)CCCCCCCC)OC(=O)CCCCCCCC [Glycerol tripelargonate]

# Same assay, conditions: grams per 100 g of pigment, Black Iron Oxide CI77499
"Fp (flow point), amount of ester oil needed [g]","Wp (wet point), amount of ester oil needed [g]",SMILES
100.00,60.00,CCCCCCCCC(=O)OCC(COC(=O)CCCCCCCC)OC(=O)CCCCCCCC [Glycerol tripelargonate]
145.00,50.00,"CC(C)CCCCCCOC(=O)CCCCCC(C)C [Isononyl Isononanoate, reference compound]"
166.00,61.00,CCCCCCCCC(=O)OCC(C)(C)COC(=O)CCCCCCCC [Neopentyl glycol dipelargonate]
132.00,62.00,CCCCCCCCC(=O)OCC(COC(=O)CCCCCCCC)(COC(=O)CCCCCCCC)COC(=O)CCCCCCCC [Pentaerythritol tetrapelargonate]

# Same assay, conditions: in words, compared with commonly used cosmetic ingredients
row,SMILES,dispersion properties
1,CCCCCCCCC(=O)OCC(COC(=O)CCCCCCCC)OC(=O)CCCCCCCC [Glycerol tripelargonate],even better than those of Caprylic/Capric Triglyceride
